From PubChem BioAssay AID2305 (GlaxoSmithKline (GSK), 2010) come the findings set out here.

SMILES strings stand for the structures.

The subject of the experiment is P. falciparum 3D7 growth, pLDH absorbance. The experiment is described as follows: P. falciparum 3D7 growth inhibition, dose response, strain 3D7 (AID 2305).

For `Cc1c2ccc(N(C)c3ccnc(Nc4ccc5c(c4)nc(NC(C)C)n5C)n3)cc2nn1C`, the IC50 (usually the concentration needed to halve the response being measured) was 160 nM.
Turning to `c1ccc(CNc2nc(NCCc3cnc[nH]3)nc(N3CCCC4CCCCC43)n2)cc1` (configuration not stated), the IC50 came out at 830 nM.
Take `COc1ccc2c(NN=Cc3cccc(F)c3)cc(C)nc2c1`: the IC50 was 780 nM.
As for `COc1ccc(NC(=O)c2ccc(-c3nc(-c4ccc(Cl)cc4)cs3)cc2)cc1N1CCN(C)CC1`, the figure is 920 nM.
Take `COc1ccccc1C1CCN(CCCCNC(=O)c2ccc(/C=C/c3cc(Cl)cc(Cl)c3)cc2)CC1`: the IC50 is 720 nM.
For `O=c1cc(NCCCNCc2cccc(I)c2)[nH]c2ccccc12`, the IC50 turned out to be 1020 nM.
On to `COc1ccc2nccc(NCC3(O)CCN(CCc4ccc5c(c4)OCCO5)CC3)c2n1`, for which the IC50 was found to be 600 nM.
The value for `Cc1ccccc1C1CCN(C2CCC(NC(=O)c3ccc(-c4ccccc4)s3)CC2)CC1` (configuration not stated) was 660 nM; that for `Cc1ccc(Cl)cc1N1CCN(CCCNC(=O)C2CCN(c3nc4ccccc4[nH]3)CC2)CC1` was 900 nM; that for `CCNc1cc(C(=O)N[C@@H](Cc2ccccc2)[C@H](O)CNCc2cccc(OC)c2C)cc(N2CCCCS2(=O)=O)c1` was 520 nM.
The value for `c1ccc(CSC2=NNC(c3ccccn3)S2)cc1` (configuration not stated) was 1480 nM.
Turning to `O=C(Nc1cccc(-c2csc(-c3nc4ccccc4[nH]3)c2)c1)c1ccoc1`, the IC50 stood at 210 nM.
The value for `COc1ccc2ccccc2c1C=NNc1ccnc2ccc(F)cc12` was 1110 nM.
With `CCOc1cc(C)ccc1C1CCN(CCCCNC(=O)c2ccc(-c3ccc(C(F)(F)F)cn3)cc2)CC1`, the IC50 is 790 nM.
The value for `CCCCCCCNCCNc1cc(C)nc2ccccc12` was 390 nM; that for `c1cc(CN2CCCCC2)cc(-c2cccc(-c3nc4ccccc4[nH]3)c2)c1` was 830 nM.
For the compound `O=C(/C=C/c1ccc(Cl)c(Cl)c1)NCCCCCN1CCCN(C(=O)Nc2cccc(C(F)(F)F)c2)CC1`, the IC50 is 870 nM.
For the compound `CCOc1ccnc(=O)[nH]1`, the IC50 came out at 460 nM.
As to `CCN(CC)CCCN(CCCN(CC)CC)c1cc(C)nc(Nc2ccc3cc(Br)ccc3c2)n1`, the IC50 is 570 nM.
Regarding `COc1ccc(CCN(C)CCOc2ccc(NC(=O)c3cccc4c(=O)c5cc(SC)ccc5[nH]c34)cc2)cc1OC`, the IC50 amounted to 740 nM.
The compound `CC(C)(C)CCN1CCC(CNC(=O)c2cc(-c3cccc(Cl)c3)cs2)C1` (configuration not stated) showed an IC50 of 820 nM.
As for `N#Cc1c(N)nc(SCC(=O)Nc2cc(C(F)(F)F)ccc2Cl)c(C#N)c1-c1cccs1`, the IC50 came to 740 nM.
Consider `CC(C)C[C@H]1C(=O)N[C@H](C2Cc3ccccc3C2)C(=O)N1[C@@H](C(=O)Nc1ccccc1OCc1ccccc1)c1ccc(F)cc1F`, for which the IC50 is 1020 nM.
As for `c1ccc2[nH]c(-c3ccc(-c4ccc(CN5CCN(c6ccncc6)CC5)cc4)cc3)nc2c1`, the IC50 came to 160 nM.
`Nc1nc(N)c2c(ccc3nn(Cc4ccccc4)cc32)n1`: the IC50 stood at 210 nM.
In turn, `COc1ccc(-c2cnn3ccc(Nc4cc(OC)c(OC)c(OC)c4)nc23)cc1OC` displayed an IC50 of 650 nM.
`Cc1ccc2nc(C)cc(Nc3ccccc3O)c2c1` gave an IC50 of 790 nM.
`O=C(Nc1ccc(F)c([N+](=O)[O-])c1)Nc1cc(C(F)(F)F)ccc1Cl` returned an IC50 of 860 nM.
In turn, `COc1ccc(-c2cnc(N)c(-c3nc4ccc(Br)cc4[nH]3)c2)cc1` returned an IC50 of 1560 nM.
For `Cc1nc2ccc3nc(NC(=O)c4ccno4)sc3c2s1`, the IC50 is 660 nM.
Compound `CCN(CC1CCN(CC2(O)CCOCC2)CC1)c1cc(C)nc(Nc2ccc(Cl)cc2)n1` returned an IC50 of 410 nM.
As to `O=C(/C=C/c1ccc(Cl)c(Cl)c1)NCCCCCCN1CCCN(C(=O)Nc2ccc(Cl)c(C(F)(F)F)c2)CC1`, the IC50 is 560 nM.
Consider `COc1ccccc1CCNc1nccc(N[C@@H](Cc2ccccc2)C(=O)NCc2cccs2)n1`, for which the IC50 was found to be 870 nM.
As to `O=C(c1cc(C(F)(F)F)cc(C(F)(F)F)c1)N1CC[C@H](CCN2CCC3(CC2)C(=O)NCN3c2ccccc2)C[C@H]1Cc1ccc(Cl)c(Cl)c1`, the IC50 came out at 660 nM.
Compound `CCCCNCc1ccc(-c2nc(CN(CCCN3CCN(C)CC3)C(=O)Nc3cccc(Cl)c3)cs2)cc1` returned an IC50 of 970 nM.
Turning to `COCCNCc1ncsc1-c1ccc2c(Nc3cc(O)ccc3C)ccnc2c1`, the IC50 worked out at 700 nM.
With `Fc1ccc2nc(-c3ccc(-c4ccc(CN5CCN(c6ccncc6)CC5)cc4)cc3)[nH]c2c1`, the IC50 was determined as 250 nM.
`O=C(Nc1cccc(C(F)(F)F)c1)NC1CCN(c2ccnc3cc(Cl)ccc23)C1` (configuration not stated): the IC50 is 120 nM.
As for `Cc1cc(N2CCCC2)nc(Nc2ccc(NC(=O)c3ccccc3C)cc2)n1`, the IC50 is 720 nM.
`Cc1cc(-c2cccc(CNC3CCN(C)CC3)c2)ccc1S(=O)(=O)NCc1ccccc1` yielded an IC50 of 820 nM.
In the case of `COC(=O)C1=CNC=C(C(=O)OC)C1c1ccc(Cl)c([N+](=O)[O-])c1`, the IC50 was found to be 680 nM.
As for `Cc1cc(Nc2cccc(C(F)(F)F)c2)nc(NCc2ccccc2)n1`, the figure is 150 nM.
`CCN(CC)Cc1cc(Nc2c3ccc(Cl)cc3nc3cccc(OC)c23)ccc1O` showed an IC50 of 30 nM.
Regarding `CCCCCCN1CCCN(Cc2ccc(C(=O)Nc3ccc(Cl)cc3)cc2)CC1`, the IC50 turned out to be 1210 nM.
The value for `O=C(Nc1ccccc1Cl)N(Cc1cc(Cl)cc(Cl)c1)CC(O)COc1ccc(Cl)c(F)c1` (configuration not stated) was 790 nM; that for `CCNc1cc(C(=O)N[C@@H](Cc2ccccc2)[C@H](O)CNC2CCCCC2)cc(N2CCCCS2(=O)=O)c1` was 170 nM; that for `CCCNCc1ccc(-c2ccc(CN(CC3CCCO3)C(=O)C3CC(=O)c4ccccc43)cc2)nc1` (configuration not stated) was 860 nM.
The value for `CCOC(=O)c1[nH]c(-c2ccc(Cl)cc2)nc1NC(=S)NCCCN1CCOCC1` was 870 nM.
For `CC[C@H](C)CNC(=O)c1ccnc(-c2ccc(CN3CCC(N4CCCC4)CC3)cc2)c1`, the IC50 amounted to 890 nM.
On to `CCN(CC)CC(O)Cc1c2ccc([N+](=O)[O-])cc2nc2cc(OC)c(OC)cc12` (configuration not stated), for which the half-inhibitory concentration (IC50) turned out to be 740 nM.
`CN(C)c1cccc(-c2cnc3ccc(NCc4cccc(Cl)c4)nn23)c1` came in with an IC50 of 700 nM.
As to `c1ccc2c(Nc3ccc(Cc4ccc(Nc5c6ccccc6nc6ccccc56)cc4)cc3)c3ccccc3nc2c1`, the IC50 stood at 160 nM.
Take `CCCc1ccc(Nc2nc(C)cc(N(CC)CCCN3CCCCC3)n2)cc1`: the IC50 turned out to be 540 nM.
`CCc1c(C(=O)NC2CCC(N3CCC(c4ccccc4OC)CC3)CC2)[nH]c2ccc(OC)cc12` (configuration not stated) registered an IC50 of 1110 nM.
Take `CN(C)CCCOc1ccc(CNCC(C)(C)c2nc(-c3ccc(Cl)c(O)c3)c(-c3ccncc3)[nH]2)cc1`: the IC50 was determined as 710 nM.
`CC(C)C[C@H](NC(=O)c1ccc(OCCN2CCOCC2)cc1)C(=O)N[C@H](/C=N/NC(=O)c1ccccc1)CCc1ccccc1` had an IC50 of 60 nM.
Take `C[C@@H](CNc1ccnc(Nc2ccc3[nH]c(=O)[nH]c3c2)n1)c1ccccc1`: the IC50 was 1100 nM.
For the compound `CCC1(CC)N=C(N)N=C(N)N1OCc1ccc(Cl)c(Cl)c1`, the IC50 was found to be 60 nM.
Compound `CN(C)c1nc2cc(-n3cnc4cc(-c5ccc(Cl)cc5)sc4c3=O)ccc2n1CCCN1CCCC1` had an IC50 of 850 nM.
As for `FC(F)(F)c1ccc2nc(-c3ccc(-c4cccc(CNCCc5cccnc5)c4)s3)[nH]c2c1`, the IC50 came out at 170 nM.
As for `COc1cccc(C2CCN(CCN3CCC(NC(=O)c4ccc(-c5ccc(Cl)cc5)cc4)CC3)CC2)c1`, the figure is 1090 nM.
The compound `Cc1cc(NC(=O)Nc2ccc3ncccc3c2)c2ccccc2n1` displayed an IC50 of 960 nM.
Turning to `Nc1nc(Nc2cccc(O)c2)nc2ccccc12`, the half-inhibitory concentration (IC50) was determined as 790 nM.
In the case of `CC[C@H]1CN2CC[C@H]1C[C@@H]2[C@@H](O)c1cc(Cl)nc2ccc(OC)cc12`, the IC50 came out at 60 nM.
The compound `Cc1ccc(NC(=O)c2ccc3ncccc3c2)cc1OC1CCN(Cc2ccsc2)CC1` gave an IC50 of 930 nM.
Compound `O=C(Nc1ccc([N+](=O)[O-])cc1)Nc1cc(OCC(F)(F)F)cc(OCC(F)(F)F)c1` gave an IC50 of 470 nM.
`CCC(C)NC(=O)Nc1cccc(-c2cccc(-c3nc4c(C)cccc4[nH]3)c2)c1` (configuration not stated): the concentration for half-maximal inhibition (IC50) stood at 810 nM.
Consider `O=C1COc2ccccc2N1C/C=C(\CN1CCC(c2ccccc2)CC1)c1cc(Cl)cc(Cl)c1`, for which the IC50 was found to be 210 nM.
On to `CCC(Cc1cnc2nc(N)nc(N)c2n1)c1ccc(C(=O)N[C@@H](CCC(=O)O)C(=O)O)cc1` (some centres not stated), for which the IC50 was found to be 40 nM.
Turning to `COc1ccc2nccc([C@@H](O)CN3CCC(NC(=O)c4cc5cccnc5[nH]4)CC3)c2c1`, the IC50 stood at 890 nM.
Compound `FC(F)(F)c1cccc2c(NN=Cc3ccccc3)ccnc12` showed an IC50 of 620 nM.
Compound `CN1CCc2cc(NS(=O)(=O)c3ccc(-c4ccc(Cl)cc4)cc3)c(OCCCN3CCCCC3)cc2CC1` had an IC50 of 960 nM.
As to `N=c1c(C(=O)NCc2ccccc2)cc2c(=O)n3ccccc3nc2n1CCc1ccccc1`, the IC50 was 530 nM.
As for `CCCCCCCCNCc1c(O)ccc2ccccc12`, the figure is 740 nM.
For the compound `O=C(N[C@@H](Cc1ccccc1)C(=O)NCc1cccc(C(F)(F)F)c1)c1ccc(O)c(-c2ccc(Cl)c(Cl)c2)c1`, the IC50 turned out to be 700 nM.
As for `FC(F)(F)Oc1ccc(Nc2cc(-c3ccncc3)nc(-c3cccnc3)n2)cc1`, the figure is 670 nM.
For `COc1ccc2ncc(F)c(CCN3CC[C@@H](CNCc4nc5c(cc4C)SCC(=O)N5)C3)c2n1`, the IC50 amounted to 1150 nM.
In the case of `Cc1cc(NN=Cc2ccc(Cl)cc2)c2cc(F)ccc2n1`, the IC50 worked out at 830 nM.
`CN(c1ccc(NC(=O)c2ccc(F)cc2)cc1)C1CCN(Cc2cccc(F)c2)C1` (configuration not stated) gave a concentration for half-maximal inhibition (IC50) of 1410 nM.
The compound `CCc1ccc(Cc2cnc3nc(N)nc(N)c3c2C)cc1` showed an IC50 of 200 nM.
`COc1ccc(CNCCCCCNCc2ccc(Cl)c(Cl)c2)cc1Cl`: the IC50 is 750 nM.
The value for `Nc1nc(N)c2c(Cc3ccccc3)cccc2n1` was 830 nM.
`O=C(c1ccc2ccccc2n1)N1CCCc2cc(Br)ccc21` registered an IC50 of 860 nM.
In turn, `CC(=O)c1ccc(N2C(=O)C3C(Cc4ccc(OC(C)(C)C)cc4)NC4(C(=O)N(Cc5ccc(C(C)(C)C)cc5)c5ccccc54)C3C2=O)cc1` (configuration not stated) yielded an IC50 of 1280 nM.
`COCn1ncc2cc(-c3cccc(NC(=O)c4csc(NC(C)=O)n4)c3)ccc21`: the IC50 was 990 nM.
Compound `O=C(Nc1ccc([N+](=O)[O-])cc1Cl)c1cc2ccccc2cc1O` came in with a half-maximal inhibitory concentration (IC50) of 1010 nM.
Turning to `CCN(CC)S(=O)(=O)c1ccc(CCOCCCCCNCC(O)c2cc(Cl)c(N)c(Cl)c2)s1` (configuration not stated), the IC50 was 860 nM.
